# Test system: hepatocytes
# Test: Seq-Well scRNA-Seq of hepatocytes after APAP overdose (signature scores, DEG vs untreated)
# Format: in vivo, mouse
# [1] = A24 (24 h post-APAP) vs other clusters, Wilcox
structure (smiles),measurement,setting,value
"CC(=O)Nc1ccc(O)cc1 [APAP, acetaminophen]",Vcam1 avg_logFC,A6 vs UT,0.4574
same,Vcam1 pct.1,A6 vs UT,0.134
same,Vkorc1 avg_logFC,A6 vs UT,−0.4042
same,Vkorc1 pct.1,A6 vs UT,0.296
same,Vsig4 avg_logFC,A6 vs UT,0.4833
same,Vsig4 pct.1,A6 vs UT,0.117
same,Wbp1l avg_logFC,A6 vs UT,0.5535
same,Wdr26 avg_logFC,A6 vs UT,0.4325
same,Wdr26 pct.1,A6 vs UT,0.549
same,Wfdc17 avg_logFC,A6 vs UT,0.4867
same,Wfdc17 pct.1,A6 vs UT,0.177
same,Xbp1 avg_logFC,A6 vs UT,0.6032
same,Xrn2 A6logFC,A6 vs UT,0.2985
same,Xrn2 avg_logFC,A6 vs UT,0.2985
same,Xrn2 pct.1,A6 vs UT,0.387
same,Yap1 A6logFC,A6 vs UT,0.3281
same,Ythdc1 A6logFC,A6 vs UT,0.2641
same,Ythdc1 avg_logFC,A6 vs UT,0.2641
same,Ythdc1 pct.1,A6 vs UT,0.301
same,Ywhag avg_logFC,A6 vs UT,0.5824
same,Zbtb20 avg_logFC,A6 vs UT,0.4715
same,Zbtb20 pct.1,A6 vs UT,0.566
same,Zfand5 A6logFC,A6 vs UT,0.2882
same,Zfand5 avg_logFC,A6 vs UT,0.2882
same,Zfand5 pct.1,A6 vs UT,0.401
same,Zfp106 A6logFC,A6 vs UT,0.3369
same,Zfp106 avg_logFC,A6 vs UT,0.3369
same,Zfp106 pct.1,A6 vs UT,0.391
same,Zfp259 A6logFC,A6 vs UT,0.2556
same,Zfp259 avg_logFC,A6 vs UT,0.2556
same,Zfp259 pct.1,A6 vs UT,0.32
same,mmu-mir-6240 avg_logFC,A6 vs UT,1.101
same,mt-Co2 avg_logFC,A6 vs UT,−1.105
same,mt-Co3 avg_logFC,A6 vs UT,−0.7059
same,mt-Co3 pct.1,A6 vs UT,0.346
same,mt-Nd1 avg_logFC,A6 vs UT,−0.3883
same,mt-Nd4 avg_logFC,A6 vs UT,−0.6388
same,n-R5-8s1 avg_logFC,A6 vs UT,0.7661
same,avg_logFC AA474408,[1],0.4148
same,avg_logFC Abca1,[1],0.3831
same,avg_logFC Acly,[1],0.4101
same,avg_logFC Acox1,[1],0.2743
same,avg_logFC Acsl4,[1],0.299
same,avg_logFC Adh4,[1],0.392
same,avg_logFC Ak3,[1],0.2505
same,avg_logFC Aox3,[1],0.3489
same,avg_logFC Arcn1,[1],0.3044
same,avg_logFC Atp8b1,[1],0.361
same,avg_logFC Atp11c,[1],0.2568
same,avg_logFC Atxn1,[1],0.325
same,avg_logFC Calm1,[1],0.3702
same,avg_logFC Calu,[1],0.3005
same,avg_logFC Canx,[1],0.2771
same,avg_logFC Cltc,[1],0.3397
same,avg_logFC Cmah,[1],0.4243
same,avg_logFC Copa,[1],0.3334
same,avg_logFC Cps1,[1],0.2775
same,avg_logFC Ctnnb1,[1],0.329
same,avg_logFC Cxcl1,[1],0.453
same,avg_logFC Cyb5r3,[1],0.3097
same,avg_logFC Ddost,[1],0.2909
same,avg_logFC Dhcr24,[1],0.2824
same,avg_logFC Dnajb11,[1],0.3288
same,avg_logFC Dnajc12,[1],0.3241
same,avg_logFC Echdc1,[1],0.2818
same,avg_logFC Edem1,[1],0.2675
same,avg_logFC Efna1,[1],0.3161
same,avg_logFC Eif4g1,[1],0.2763
same,avg_logFC Eif4g2,[1],0.3515
same,avg_logFC Eprs,[1],0.2513
same,avg_logFC Etnk1,[1],0.3194
same,avg_logFC Fam120a,[1],0.2583
same,avg_logFC Fasn,[1],0.2699
same,avg_logFC Fndc3b,[1],0.3202
same,avg_logFC Fos,[1],0.3632
same,avg_logFC Gjb2,[1],0.2998
same,avg_logFC Gm5424,[1],0.262
same,avg_logFC Gm24245,[1],0.414
same,avg_logFC Grlf1,[1],0.2556
same,avg_logFC Hnf4a,[1],0.255
same,avg_logFC Hs3st3b1,[1],0.3219
same,avg_logFC Hsd3b5,[1],0.3009
same,avg_logFC Hsd17b2,[1],0.3231
same,avg_logFC Hspa13,[1],0.342
same,avg_logFC Ibtk,[1],0.2959
same,avg_logFC Il6st,[1],0.3011
same,avg_logFC Il13ra1,[1],0.2889
same,avg_logFC Insig1,[1],0.4125
same,avg_logFC Kmo,[1],0.2687
same,avg_logFC Lasp1,[1],0.2608
same,avg_logFC Lgr4,[1],0.2572
same,avg_logFC Lman1,[1],0.2518
same,avg_logFC Lpgat1,[1],0.2525
same,avg_logFC Lrg1,[1],0.3096
same,avg_logFC Lrp1,[1],0.4837
same,avg_logFC Lrrc59,[1],0.2688
same,avg_logFC Met,[1],0.2512
same,avg_logFC Mlec,[1],0.3405
same,avg_logFC Mtss1,[1],0.2522
same,avg_logFC Mtus1,[1],0.3125
same,avg_logFC Mug2,[1],0.3166
same,avg_logFC Nab1,[1],0.2601
same,avg_logFC Nars,[1],0.3127
same,avg_logFC Nedd4,[1],0.3306
same,avg_logFC Nr1d2,[1],0.3855
same,avg_logFC Nr5a2,[1],0.2599
same,avg_logFC Nrp1,[1],0.33
same,avg_logFC Ostc,[1],0.3082
same,avg_logFC Pnpla7,[1],0.3966
same,avg_logFC Prg4,[1],0.4007
same,avg_logFC Prkd3,[1],0.3041
same,avg_logFC Proz,[1],0.28
same,avg_logFC Pten,[1],0.2663
same,avg_logFC Ptprf,[1],0.2888
same,avg_logFC Qsox1,[1],0.2818
same,avg_logFC Rab1,[1],0.3145
same,avg_logFC Rdx,[1],0.276
same,avg_logFC Rpn1,[1],0.3992
same,avg_logFC Rrbp1,[1],0.2968
same,avg_logFC Sdf2l1,[1],0.3078
same,avg_logFC Sec31a,[1],0.2596
same,avg_logFC Sec61b,[1],0.3008
same,avg_logFC Sel1l,[1],0.2833
same,avg_logFC Sh3bgrl,[1],0.2668
same,avg_logFC Slc3a1,[1],0.3074
same,avg_logFC Slc38a10,[1],0.2557
same,avg_logFC Spcs3,[1],0.3907
same,avg_logFC Srebf1,[1],0.3149
same,avg_logFC Srp72,[1],0.28
same,avg_logFC Srpr,[1],0.2914
same,avg_logFC Ssr1,[1],0.3129
same,avg_logFC Stard4,[1],0.2922
same,avg_logFC Stt3b,[1],0.2648
same,avg_logFC Tmed7,[1],0.3715
same,avg_logFC Tmem30a,[1],0.3056
same,avg_logFC Trip12,[1],0.2832
same,avg_logFC Txndc5,[1],0.2758
same,avg_logFC Uggt1,[1],0.2805
same,avg_logFC Uso1,[1],0.3202
same,avg_logFC Usp4,[1],0.2959
same,avg_logFC Usp9x,[1],0.3387
same,avg_logFC Zbtb20,[1],0.3135
same,Atp11c A24logFC,A24 vs UT,0.2605
same,Brd2 A24logFC,A24 vs UT,0.2664
same,Caprin1 A24logFC,A24 vs UT,0.2628
same,Copz1 A24logFC,A24 vs UT,0.2577
same,Ctsc A24logFC,A24 vs UT,0.3004
same,Ddost A24logFC,A24 vs UT,0.2504
same,Deptor A24logFC,A24 vs UT,0.2606
same,Eif4b A24logFC,A24 vs UT,0.256
same,Fasn A24logFC,A24 vs UT,0.2914
same,Gm20594 A24logFC,A24 vs UT,−0.36
same,Lasp1 A24logFC,A24 vs UT,0.253
same,Proz A24logFC,A24 vs UT,0.2632
same,Rnf13 A24logFC,A24 vs UT,0.2553
same,Ubb A24logFC,A24 vs UT,−0.2593
same,avg_logFC 1110008F13Rik,A24 vs untreated (UT),−0.4553
same,avg_logFC AA474408,A24 vs untreated (UT),0.4364
same,avg_logFC Aadac,A24 vs untreated (UT),−0.4038
same,avg_logFC Abca1,A24 vs untreated (UT),0.4394
same,avg_logFC Acaa1b,A24 vs untreated (UT),−0.8508
same,avg_logFC Acot1,A24 vs untreated (UT),−0.2862
same,avg_logFC Acox1,A24 vs untreated (UT),0.2752
same,avg_logFC Acsl1,A24 vs untreated (UT),−0.3703
same,avg_logFC Acsl4,A24 vs untreated (UT),0.3147
same,avg_logFC Actb,A24 vs untreated (UT),0.3845
same,avg_logFC Adh1,A24 vs untreated (UT),−0.342
same,avg_logFC Adh4,A24 vs untreated (UT),0.3769
same,avg_logFC Ahcy,A24 vs untreated (UT),−0.563
same,avg_logFC Ak3,A24 vs untreated (UT),0.289
same,avg_logFC Akr1c6,A24 vs untreated (UT),−0.3176
same,avg_logFC Alas1,A24 vs untreated (UT),−0.4898
same,avg_logFC Aldh3a2,A24 vs untreated (UT),−0.3008
same,avg_logFC Ankrd55,A24 vs untreated (UT),−1.874
same,avg_logFC Aox3,A24 vs untreated (UT),0.2878
same,avg_logFC Apcs,A24 vs untreated (UT),0.6067
same,avg_logFC Apoa2,A24 vs untreated (UT),−0.5455
same,avg_logFC Apoa5,A24 vs untreated (UT),−0.299
same,avg_logFC Apob,A24 vs untreated (UT),0.4272
same,avg_logFC Apoc1,A24 vs untreated (UT),−0.3803
same,avg_logFC Apoc3,A24 vs untreated (UT),−0.4404
same,avg_logFC Apoc4,A24 vs untreated (UT),−0.4285
same,avg_logFC Apoe,A24 vs untreated (UT),−0.4213
same,avg_logFC Arcn1,A24 vs untreated (UT),0.3278
same,avg_logFC Arrdc3,A24 vs untreated (UT),0.5269
same,avg_logFC Atp8b1,A24 vs untreated (UT),0.3628
same,avg_logFC Atp5h,A24 vs untreated (UT),−0.5795
same,avg_logFC Atxn1,A24 vs untreated (UT),0.3049
same,avg_logFC B2m,A24 vs untreated (UT),−0.418
same,avg_logFC BC025446,A24 vs untreated (UT),0.2942
same,avg_logFC Bhmt,A24 vs untreated (UT),−0.5202
same,avg_logFC C3,A24 vs untreated (UT),0.4495
same,avg_logFC C8a,A24 vs untreated (UT),0.3337
same,avg_logFC C8b,A24 vs untreated (UT),0.3187
same,avg_logFC C8g,A24 vs untreated (UT),−0.482
same,avg_logFC Calm1,A24 vs untreated (UT),0.4131
same,avg_logFC Calr,A24 vs untreated (UT),0.5551
same,avg_logFC Calu,A24 vs untreated (UT),0.3041
same,avg_logFC Canx,A24 vs untreated (UT),0.3434
same,avg_logFC Cat,A24 vs untreated (UT),0.2626
same,avg_logFC Cebpb,A24 vs untreated (UT),−0.4716
same,avg_logFC Ces1c,A24 vs untreated (UT),−0.2783

# From US20230053540A1, “TREATMENT OF LIVER INJURY” (Massachusetts Institute of Technology, priority 2019, published 2023)
